Common to all, as to format: cell-based
For test [1], the target named is T1, ERK1 (Homo sapiens, UniProt P27361).
T1 construct: endogenous in cells; host or cells: MDA-MB-231
Description: ERK1 degradation, western blot in MDA-MB-231 cells. To be noted: 0.025-2.5 µM. As for the experimental part: […] once with ice-cold PBS (1 × ), followed by lysis in buffer containing 25 mM Tris [pH 7.5], 0.25% sodium deoxycholate, 1% Triton X-100, supplemented with 1X protease inhibitor cocktail (Roche), and phosphatase inhibitors (10 mM NaF, 1 mM Na3VO4, and 20 mM β-glycerophosphate), unless otherwise noted. Lysates were spun at 14,000 × g for 10 min at 4 °C and supernatant was evaluated for protein content using a Pierce BCA Protein Assay (ThermoFisher Scientific). In all experiments, 25–50 μg of protein was loaded onto 10% SDS-PAGE gels or 4–20% Criterion TGX precast gradient gels (Bio-Rad), transferred to nitrocellulose membranes, and probed with the specified antibodies overnight at 4 °C in 1X TBS-Tween (Tris-buffered saline plus 0.02% Tween 20) containing 5% non-fat milk. Immunoblots were visualized using a Bio-Rad ChemiDoc imaging instrument and subsequently processed and quantified using the accompanying Bio-Rad ImageLab software. See Supplementary Figure 8 for uncropped scans of western blots shown in the main text figures.
Supplementary Figure 4 cont.
Supplementary Figure 4. Characterization of M APK fam ily degradation selectivity (related to Figures 1-2). (a) p38 M APK fam ily m em bers (α, β, δ, γ) were aligned using the T-Coffee multiple sequence alignm ent server. […] Note: JNK1 and JNK2 are expressed as two alternatively-spliced form s. […]
(Immunoblotting shows a protein as a band on a membrane.)

The target of test [2] is T2, FLAG-p38α (Homo sapiens, UniProt Q16539).
T2 construct: expressed in transfected cells; host or cells: HeLa
The test is described as follows: Ubiquitination assay, FLAG-p38α and HA-Ub in HeLa cells. To be noted: 500 nM PROTAC, 1 h. As for the experimental part: HeLa cells (2 × 10^6) were seeded into 10 cm dishes and allowed to adhere overnight. On the following day, cells were transfected with 3 µg pcDNA5-FLAG-p38α or pcDNA5-FLAG-p38δ and 1 µg pRK5-HA-Ubiquitin-WT (Addgene plasmid #17608) in Opti-MEM media using Lipofectamine 2000 (Invitrogen). After 6 h, Opti-MEM media were replaced with DMEM (1 × ) and cells were grown for an additional 24 h. After this time, cells were treated with indicated concentrations of either vehicle (DMSO) or PROTAC for the indicated amount of time at 37 °C. Cells were then placed on ice, rinsed twice with ice-cold 1X PBS and lysed in 500 µL modified 1X RIPA buffer (25 mM Tris-HCl pH 7.6, 150 mM NaCl, 1% NP-40, 1% sodium deoxycholate, 0.1% SDS) containing 5 mM 1,10-phenanthroline monohydrate, 10 mM N-ethylmaleimide, 20 µM PR-619, and 1X protease inhibitor cocktail (Roche). Lysates were spun down at 14,000 × g at 4 °C for 20 min and protein content was measured by Pierce BCA Protein Assay (ThermoFisher Scientific). […] Immunoprecipitated protein was eluted off of the beads by heating at 95 °C for 5 min and the supernatant was run on an SDS-PAGE gel and evaluated for the presence of immunoprecipitated FLAG-tagged proteins (anti-FLAG M2, Sigma #F1804), as well as ubiquitinated FLAG-tagged proteins (anti-HA-tag (6E2), CST #2367). […]

The target in test [3] is T3, wild-type p38δ (Homo sapiens, UniProt O15264).
T3 construct: expressed in transfected cells; host or cells: HeLa
T3 sequence (O15264 1-365): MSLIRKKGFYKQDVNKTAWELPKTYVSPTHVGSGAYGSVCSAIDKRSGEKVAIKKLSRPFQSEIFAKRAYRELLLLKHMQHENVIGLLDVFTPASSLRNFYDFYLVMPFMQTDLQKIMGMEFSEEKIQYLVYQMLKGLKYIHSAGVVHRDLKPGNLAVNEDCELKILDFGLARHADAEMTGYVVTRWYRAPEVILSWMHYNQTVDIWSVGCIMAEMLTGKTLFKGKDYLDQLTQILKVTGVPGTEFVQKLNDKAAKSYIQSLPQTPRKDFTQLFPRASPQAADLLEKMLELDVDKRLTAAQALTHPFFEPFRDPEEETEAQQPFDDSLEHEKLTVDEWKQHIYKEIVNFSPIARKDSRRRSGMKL
The test is described as follows: Degradation of transfected wild-type p38δ in HeLa cells. The settings on record: 24 h. As for the experimental part:
Mutant p38δ was generated by QuikChange Lightning site-directed mutagenesis kit (Agilent). Transfections were carried out using Lipofectamine 2000 reagent (Invitrogen) in HeLa cells seeded at 3 × 10^5 cells per six well. One microgram of FLAG-containing pcDNA5-p38delta-WT or pcDNA5-p38delta-K220ET221E was used per transfection. Opti-MEM media were changed after 6 h to DMEM (1 × ), at which point the indicated compounds were added for 24 h before harvesting.

T2 sequence (Q16539 whole entry): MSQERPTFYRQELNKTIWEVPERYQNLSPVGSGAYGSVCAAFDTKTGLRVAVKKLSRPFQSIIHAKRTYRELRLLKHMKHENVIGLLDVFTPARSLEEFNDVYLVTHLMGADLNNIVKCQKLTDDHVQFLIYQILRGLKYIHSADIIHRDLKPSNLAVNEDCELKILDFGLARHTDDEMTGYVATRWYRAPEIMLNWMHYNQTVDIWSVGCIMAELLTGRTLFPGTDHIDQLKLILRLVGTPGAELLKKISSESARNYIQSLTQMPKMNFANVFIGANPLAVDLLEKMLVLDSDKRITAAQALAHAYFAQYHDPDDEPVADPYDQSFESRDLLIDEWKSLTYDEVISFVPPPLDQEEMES
T1 sequence (P27361 whole entry): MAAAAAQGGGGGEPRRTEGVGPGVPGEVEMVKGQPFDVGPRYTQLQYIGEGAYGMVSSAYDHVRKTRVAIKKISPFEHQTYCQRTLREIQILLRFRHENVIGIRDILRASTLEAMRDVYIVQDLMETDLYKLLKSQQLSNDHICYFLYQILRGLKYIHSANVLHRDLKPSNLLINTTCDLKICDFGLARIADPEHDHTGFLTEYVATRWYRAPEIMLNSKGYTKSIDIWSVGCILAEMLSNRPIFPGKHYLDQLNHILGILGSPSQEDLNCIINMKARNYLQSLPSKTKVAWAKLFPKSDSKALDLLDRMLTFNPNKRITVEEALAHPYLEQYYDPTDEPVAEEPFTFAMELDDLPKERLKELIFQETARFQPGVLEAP

Turning to `COc1cc2c(Oc3ccc(NC(=O)C4(C(=O)Nc5ccc(F)cc5)CC4)cc3F)ccnc2cc1OCCOCCOCCOc1cc(-c2scnc2C)ccc1CNC(=O)[C@@H]1C[C@@H](O)CN1C(=O)[C@H](C(C)C)N1Cc2ccccc2C1=O` [SJFδ], in test [1], the ERK1 degradation result is recorded as “neither PROTAC degrades”. The “ubiquitination of FLAG-p38α” value in test [2] is on record as “this effect was not seen”. Further, the “degradation of wild-type p38δ” value in test [3] was “able to eliminate wild-type p38δ”.

Take `COc1cc2c(Oc3ccc(NC(=O)C4(C(=O)Nc5ccc(F)cc5)CC4)cc3F)ccnc2cc1OCCCCOCCCCOCC(=O)N[C@H](C(=O)N1C[C@H](O)C[C@H]1C(=O)NCc1ccc(-c2scnc2C)cc1)C(C)(C)C` [SJFα]: the ERK1 degradation entry in test [1] was “neither PROTAC degrades”. In test [2], the “ubiquitination of FLAG-p38α” value is “substantial, high molecular weight (HMW) poly-Ub conjugation”. Further, in test [3], the “degradation of wild-type p38δ” value was “not wild-type p38δ”.

The values are drawn from PMC6328587 (Nature Communications, 2019).
